Measured values: the NIST ThermoML archive (doi:10.1021/je050540h)

Test: xn = mol fraction of the nth substance listed
Settings: 101 kPa, Liquid

C1CCCCC1 [cyclohexane] + CC(C)O
Settings	mass density, 293.15 K [kg/m3]	mass density, 298.15 K [kg/m3]	mass density, 303.15 K [kg/m3]	speed of sound, 293.15 K [m/s]	speed of sound, 298.15 K [m/s]	speed of sound, 303.15 K [m/s]	viscosity, 293.15 K [mPa·s]	viscosity, 298.15 K [mPa·s]	viscosity, 303.15 K [mPa·s]
x1 = 0.0484	783.76	779.5	775.15	1160	1141	1123	2.184	1.883	1.633
x1 = 0.097	782.63	778.29	773.87	1163	1145	1126	1.988	1.722	1.504
x1 = 0.2006	780.51	776.05	771.5	1171	1152	1132	1.651	1.444	1.267
x1 = 0.3002	778.87	774.29	769.62	1180	1159	1139	1.427	1.26	1.112
x1 = 0.3977	777.63	772.95	768.19	1189	1167	1146	1.264	1.119	0.996
x1 = 0.507	776.69	771.92	767.09	1200	1178	1155	1.128	1.008	0.908
x1 = 0.6046	776.15	771.34	766.47	1211	1188	1165	1.025	0.926	0.838
x1 = 0.7058	775.92	771.11	766.23	1223	1200	1176	0.969	0.878	0.798
x1 = 0.823	776.23	771.42	766.56	1240	1216	1192	0.944	0.856	0.786
x1 = 0.9016	776.88	772.09	767.24	1254	1230	1206	0.95	0.87	0.801
x1 = 0.9521	777.52	772.74	767.92	1265	1240	1216	0.962	0.874	0.802
x1 = 1	778.62	773.92	769.19	1279	1254	1230	0.968	0.887	0.816

CC(C)O [propan-2-ol] + C1CCCCC1
x2 = 0
Settings	mass density [kg/m3]	speed of sound [m/s]	viscosity [mPa·s]
293.15 K	785.07	1156	2.382
298.15 K	780.87	1139	2.045
303.15 K	776.6	1121	1.763

C1CCCC1 [cyclopentane] + CC(C)O
Settings	mass density, 293.15 K [kg/m3]	mass density, 298.15 K [kg/m3]	mass density, 303.15 K [kg/m3]	speed of sound, 293.15 K [m/s]	speed of sound, 298.15 K [m/s]	speed of sound, 303.15 K [m/s]	viscosity, 293.15 K [mPa·s]	viscosity, 298.15 K [mPa·s]	viscosity, 303.15 K [mPa·s]
x1 = 0.0486	782.53	778.24	773.87	1156	1138	1120	2.105	1.823	1.587
x1 = 0.091	779.96	775.6	771.15	1155	1136	1118	1.874	1.627	1.421
x1 = 0.2019	774.33	769.77	765.12	1156	1136	1116	1.425	1.254	1.11
x1 = 0.2958	769.22	764.52	759.73	1156	1135	1114	1.172	1.038	0.925
x1 = 0.3877	764.63	759.81	754.9	1158	1136	1114	0.954	0.856	0.77
x1 = 0.4823	760.38	755.45	750.44	1162	1139	1116	0.799	0.724	0.658
x1 = 0.5974	755.59	750.58	745.49	1168	1145	1121	0.641	0.588	0.542
x1 = 0.7206	750.97	745.92	740.79	1179	1154	1130	0.535	0.499	0.466
x1 = 0.8136	747.96	742.89	737.76	1190	1165	1140	0.484	0.454	0.427
x1 = 0.9219	745.39	740.33	735.2	1208	1183	1157	0.449	0.424	0.401
x1 = 0.9533	744.87	739.86	734.72	1215	1189	1164	0.443	0.419	0.398
x1 = 1	744.52	739.55	734.54	1232	1206	1180	0.438	0.416	0.394

CCC(C)O (stereo not drawn) [butan-2-ol] + C1CCCC1
x2 = 0
Settings	mass density [kg/m3]	speed of sound [m/s]	viscosity [mPa·s]
293.15 K	806.84	1230	3.623
298.15 K	802.72	1212	2.995
303.15 K	798.51	1194	2.493

C1CCCCC1 [cyclohexane] + CCC(C)O
x1 = 1
Settings	mass density [kg/m3]	speed of sound [m/s]	viscosity [mPa·s]
293.15 K	778.62	1279	0.968
298.15 K	773.92	1254	0.887
303.15 K	769.19	1230	0.816
